# Reference: ChEMBL document CHEMBL3044921, “Synthesis, characterization, and SAR studies of new (1H-indol-3-yl)alkyl-3-(1H-indol-3-yl)propanamide derivatives as possible antimicrobial and antitubercular agents” (2013)
# What was measured:
# [1] = tested on: Mycobacterium tuberculosis; test: Antitubercular activity against Mycobacterium tuberculosis H37Rv ATCC 27294 assessed as growth inhibition at 0.3125 to 5 ug/mL after 7 days by resazurin reduction test; type: functional; settings: H37Rv ATCC 27294, 168 h
# Aspergillus fumigatus [2] = test: Antifungal activity against Aspergillus fumigatus NCIM 902 assessed as growth inhibition at […] to […] ug/ml after 3 to 4 days by agar well diffusion method; type: functional
# [3] = tested on: Mycolicibacterium fortuitum; test: Antitubercular activity against Mycobacterium fortuitum ATCC 19542 assessed as growth inhibition at 0.3125 to 5 ug/mL after 7 days by resazurin reduction test; type: functional; settings: ATCC 19542, 168 h
# Talaromyces marneffei [4] = test: Antifungal activity against Talaromyces marneffei assessed as growth inhibition at […] to […] ug/ml after 3 to 4 days by agar well diffusion method; type: functional
# [5] = tested on: Mycolicibacterium smegmatis; test: Antitubercular activity against Mycobacterium smegmatis ATCC 19420 assessed as growth inhibition at 1 to 100 ug/mL after 7 days by resazurin reduction test; type: functional; settings: ATCC 19420, 168 h
# Pseudomonas aeruginosa [6] = type: functional, ATCC 27853
# Description: Antibacterial activity against Pseudomonas aeruginosa ATCC 27853 assessed as growth inhibition at 1.56 to 25 ug/ml after 3 to 4 days by agar well diffusion method
# Candida albicans [7] = test: Antifungal activity against Candida albicans assessed as growth inhibition after 3 to 4 days by serial plate dilution method; type: functional
# [8] = tested on: Mycolicibacterium fortuitum; test: Antitubercular activity against Mycobacterium fortuitum ATCC 19542 assessed as growth inhibition at 1 to 100 ug/mL after 7 days by resazurin reduction test; type: functional; settings: ATCC 19542, 168 h
# Candida albicans [9] = test: Antifungal activity against Candida albicans assessed as growth inhibition at […] to […] ug/ml after 3 to 4 days by agar well diffusion method; type: functional
# Staphylococcus aureus [10] = test: Antibacterial activity against Staphylococcus aureus ATCC 25923 assessed as growth inhibition after 16 to 18 hr by serial plate dilution method; type: functional
# Aspergillus flavus [11] = test: Antifungal activity against Aspergillus flavus NCIM 524 assessed as growth inhibition at […] to […] ug/ml after 3 to 4 days by agar well diffusion method; type: functional
# [12] = tested on: Trichophyton mentagrophytes; test: Antifungal activity against Trichophyton mentagrophytes assessed as growth inhibition after 3 to 4 days by serial plate dilution method; type: functional
# Klebsiella pneumoniae [13] = test: Antibacterial activity against Klebsiella pneumoniae assessed as growth inhibition after 16 to 18 hr by serial plate dilution method; type: functional
# Aspergillus fumigatus [14] = test: Antifungal activity against Aspergillus fumigatus NCIM 902 assessed as growth inhibition after 3 to 4 days by serial plate dilution method; type: functional
# [15] = tested on: Trichophyton mentagrophytes; test: Antifungal activity against Trichophyton mentagrophytes assessed as growth inhibition at […] to […] ug/ml after 3 to 4 days by agar well diffusion method; type: functional
# Escherichia coli [16] = type: functional, ATCC 24922
# Description: Antibacterial activity against Escherichia coli ATCC 24922 assessed as growth inhibition at 1.56 to 25 ug/ml after 3 to 4 days by agar well diffusion method
# Pseudomonas aeruginosa [17] = test: Antibacterial activity against Pseudomonas aeruginosa ATCC 27853 assessed as growth inhibition after 16 to 18 hr by serial plate dilution method; type: functional
# [18] = tested on: Mycolicibacterium smegmatis; test: Antitubercular activity against Mycobacterium smegmatis ATCC 19420 assessed as growth inhibition at 0.3125 to 5 ug/mL after 7 days by resazurin reduction test; type: functional; settings: ATCC 19420, 168 h
# Klebsiella pneumoniae [19] = type: functional
# Description: Antibacterial activity against Klebsiella pneumoniae assessed as growth inhibition at 1.56 to 25 ug/ml after 3 to 4 days by agar well diffusion method
# Staphylococcus aureus [20] = type: functional, ATCC 25923
# Description: Antibacterial activity against Staphylococcus aureus ATCC 25923 assessed as growth inhibition at 1.56 to 25 ug/ml after 3 to 4 days by agar well diffusion method
# Aspergillus flavus [21] = test: Antifungal activity against Aspergillus flavus NCIM 524 assessed as growth inhibition after 3 to 4 days by serial plate dilution method; type: functional
# Streptococcus pyogenes [22] = type: functional
# Description: Antibacterial activity against Streptococcus pyogenes assessed as growth inhibition at 1.56 to 25 ug/ml after 3 to 4 days by agar well diffusion method
# Streptococcus pyogenes [23] = test: Antibacterial activity against Streptococcus pyogenes assessed as growth inhibition after 16 to 18 hr by serial plate dilution method; type: functional
# [24] = tested on: Mycobacterium tuberculosis; test: Antitubercular activity against Mycobacterium tuberculosis H37Rv ATCC 27294 assessed as growth inhibition at 1 to 100 ug/mL after 7 days by resazurin reduction test; type: functional; settings: for MIC: Mycobacterium tuberculosis, H37Rv ATCC 27294, 168 h
# Talaromyces marneffei [25] = test: Antifungal activity against Talaromyces marneffei assessed as growth inhibition after 3 to 4 days by serial plate dilution method; type: functional
# Escherichia coli [26] = test: Antibacterial activity against Escherichia coli […] assessed as growth inhibition after 16 to 18 hr by serial plate dilution method; type: functional
Structure (SMILES),MIC [1],diameter of the inhibition zone (DIZ) (Aspergillus fumigatus [2]),MIC [3],diameter of the inhibition zone (DIZ) (Talaromyces marneffei [4]),MIC [5],diameter of the inhibition zone (DIZ) (Pseudomonas aeruginosa [6]),MIC (Candida albicans [7]),MIC [8],diameter of the inhibition zone (DIZ) (Candida albicans [9]),MIC (Staphylococcus aureus [10]),diameter of the inhibition zone (DIZ) (Aspergillus flavus [11]),MIC [12],MIC (Klebsiella pneumoniae [13]),MIC (Aspergillus fumigatus [14]),diameter of the inhibition zone (DIZ) [15],diameter of the inhibition zone (DIZ) (Escherichia coli [16]),MIC (Pseudomonas aeruginosa [17]),MIC [18],diameter of the inhibition zone (DIZ) (Klebsiella pneumoniae [19]),diameter of the inhibition zone (DIZ) (Staphylococcus aureus [20]),other results
Cn1cc(CCC(=O)NCc2c[nH]c3ccc(Cl)cc23)c2cc(Cl)ccc21,0.625 µg/mL,16 mm,10 µg/mL,16 mm,10 µg/mL,<10 mm,6.25 µg/mL,10 µg/mL,16 mm,6.25 µg/mL,16 mm,6.25 µg/mL,6.25 µg/mL,6.25 µg/mL,16 mm,16 mm,25 µg/mL,10 µg/mL,16 mm,16 mm,MIC (Aspergillus flavus [21]): 6.25 µg/mL; diameter of the inhibition zone (DIZ) (Streptococcus pyogenes [22]): 16 mm; MIC (Streptococcus pyogenes [23]): 6.25 µg/mL; growth inhibition (GI) [24]: 95%; MIC [24]: 1 µg/mL; MIC (Talaromyces marneffei [25]): 6.25 µg/mL; MIC (Escherichia coli [26]): 6.25 µg/mL
Cc1[nH]c2ccc(OC(F)(F)F)cc2c1CCCNC(=O)CCc1c[nH]c2ccc(Cl)cc12,2.5 µg/mL,16 mm,10 µg/mL,16 mm,10 µg/mL,16 mm,6.25 µg/mL,10 µg/mL,16 mm,6.25 µg/mL,16 mm,6.25 µg/mL,6.25 µg/mL,6.25 µg/mL,16 mm,16 mm,6.25 µg/mL,10 µg/mL,16 mm,16 mm,MIC (Aspergillus flavus [21]): 6.25 µg/mL; diameter of the inhibition zone (DIZ) (Streptococcus pyogenes [22]): 16 mm; MIC (Streptococcus pyogenes [23]): 6.25 µg/mL; growth inhibition (GI) [24]: <90%; MIC [24]: 10 µg/mL; MIC (Talaromyces marneffei [25]): 6.25 µg/mL; MIC (Escherichia coli [26]): 6.25 µg/mL
Cn1cc(CCC(=O)NCCCc2c[nH]c3ccc(OC(F)(F)F)cc23)c2cc(Cl)ccc21,0.625 µg/mL,11 mm,10 µg/mL,<10 mm,10 µg/mL,11 mm,6.25 µg/mL,10 µg/mL,16 mm,6.25 µg/mL,11 mm,25 µg/mL,12.5 µg/mL,12.5 µg/mL,<10 mm,11 mm,12.5 µg/mL,10 µg/mL,11 mm,16 mm,MIC (Aspergillus flavus [21]): 12.5 µg/mL; diameter of the inhibition zone (DIZ) (Streptococcus pyogenes [22]): 16 mm; MIC (Streptococcus pyogenes [23]): 6.25 µg/mL; growth inhibition (GI) [24]: 95%; MIC [24]: 1 µg/mL; MIC (Talaromyces marneffei [25]): 25 µg/mL; MIC (Escherichia coli [26]): 12.5 µg/mL
O=C(CCc1c[nH]c2ccc(Cl)cc12)NCc1c[nH]c2ccc(Cl)cc12,0.625 µg/mL,16 mm,10 µg/mL,<10 mm,1 µg/mL,16 mm,25 µg/mL,10 µg/mL,<10 mm,6.25 µg/mL,<10 mm,6.25 µg/mL,6.25 µg/mL,6.25 µg/mL,16 mm,16 mm,6.25 µg/mL,1.25 µg/mL,16 mm,16 mm,MIC (Aspergillus flavus [21]): 25 µg/mL; diameter of the inhibition zone (DIZ) (Streptococcus pyogenes [22]): 11 mm; MIC (Streptococcus pyogenes [23]): 12.5 µg/mL; growth inhibition (GI) [24]: 90%; MIC [24]: 1 µg/mL; MIC (Talaromyces marneffei [25]): 25 µg/mL; MIC (Escherichia coli [26]): 6.25 µg/mL
Cc1[nH]c2ccc(OC(F)(F)F)cc2c1CNC(=O)CCc1cn(C)c2ccc(Cl)cc12,1.25 µg/mL,<10 mm,1.25 µg/mL,<10 mm,1 µg/mL,<10 mm,12.5 µg/mL,10 µg/mL,11 mm,25 µg/mL,<10 mm,25 µg/mL,6.25 µg/mL,25 µg/mL,<10 mm,16 mm,25 µg/mL,1.25 µg/mL,16 mm,<10 mm,MIC (Aspergillus flavus [21]): 25 µg/mL; diameter of the inhibition zone (DIZ) (Streptococcus pyogenes [22]): 11 mm; MIC (Streptococcus pyogenes [23]): 12.5 µg/mL; growth inhibition (GI) [24]: 90%; MIC [24]: 1 µg/mL; MIC (Talaromyces marneffei [25]): 25 µg/mL; MIC (Escherichia coli [26]): 6.25 µg/mL
